Measured values published in ChEMBL document CHEMBL1201862, “PubChem BioAssay data set” (2004).
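Cultured in 96-well plates, cells were exposed to test compound for 48 hours across five concentrations. Here, GI50 denotes the concentration required for 50% inhibition of growth.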 Activity calls are given as the source filed them. Rule as the data show it: active = GI50 up to about 1.1 µM and inactive = higher.

Key:
Assay in all cases: NCI-60 cell line screen, 48 h
M14 = system: M14
OVCAR-4 = system: OVCAR-4
HL-60 = system: HL-60
SF-295 = system: SF-295
OVCAR-3 = system: OVCAR-3
A498 = system: A498
T47D = system: T47D
EKVX = system: EKVX
CAKI-1 = system: CAKI-1
SK-MEL-28 = system: SK-MEL-28
NCI-H460 = system: NCI-H460
PC-3 = system: PC-3
RPMI-8226 = system: RPMI-8226
SK-MEL-5 = system: SK-MEL-5
SK-MEL-2 = system: SK-MEL-2
HOP-62 = system: HOP-62
786-0 = system: 786-0
HOP-92 = system: HOP-92
COLO 205 = system: COLO 205
SF-268 = system: SF-268
NCI/ADR-RES = system: NCI/ADR-RES
HCC 2998 = system: HCC 2998
CCRF-CEM = system: CCRF-CEM
MDA-MB-435 = system: MDA-MB-435
DU-145 = system: DU-145
SN12C = system: SN12C
NCI-H522 = system: NCI-H522
U-251 = system: U-251
SW-620 = system: SW-620
IGROV-1 = system: IGROV-1
Hs-578T = system: Hs-578T
SK-OV-3 = system: SK-OV-3
MDA-MB-231 = system: MDA-MB-231
ACHN = system: ACHN
UACC-257 = system: UACC-257
UO-31 = system: UO-31
NCI-H23 = system: NCI-H23
OVCAR-5 = system: OVCAR-5
HCT-116 = system: HCT-116
A549 = system: A549
BT-549 = system: BT-549
LOX IMVI = system: LOX IMVI
HCT-15 = system: HCT-15
RXF 393 = system: RXF 393
NCI-H226 = system: NCI-H226
Malme-3M = system: Malme-3M
MDA-N = system: MDA-N
HT-29 = system: HT-29
KM12 = system: KM12
MCF7 = system: MCF7
UACC-62 = system: UACC-62
OVCAR-8 = system: OVCAR-8
SNB-75 = system: SNB-75
TK-10 = system: TK-10
SNB-19 = system: SNB-19
SR = system: SR
MOLT-4 = system: MOLT-4
K562 = system: K562

## CC(C)C(=O)Cc1ccc2ccccc2n1
M14
  GI50: > 100 µM (inactive)
OVCAR-4
  GI50: > 100 µM (inactive)
HL-60
  GI50: > 100 µM (inactive)
SF-295
  GI50: > 100 µM (inactive)
OVCAR-3
  GI50: > 100 µM (inactive)
A498
  GI50: > 100 µM (inactive)
T47D
  GI50: > 100 µM (inactive)
EKVX
  GI50: 83.4 µM (inactive)
CAKI-1
  GI50: > 100 µM (inactive)
SK-MEL-28
  GI50: > 100 µM (inactive)
NCI-H460
  GI50: > 100 µM (inactive)
PC-3
  GI50: 89.7 µM (inactive)
RPMI-8226
  GI50: 0.097 µM (active)
SK-MEL-5
  GI50: > 100 µM (inactive)
SK-MEL-2
  GI50: > 100 µM (inactive)
HOP-62
  GI50: > 100 µM (inactive)
786-0
  GI50: > 100 µM (inactive)
HOP-92
  GI50: > 100 µM (inactive)
COLO 205
  GI50: > 100 µM (inactive)
SF-268
  GI50: > 100 µM (inactive)
NCI/ADR-RES
  GI50: > 100 µM (inactive)
HCC 2998
  GI50: > 100 µM (inactive)
CCRF-CEM
  GI50: > 100 µM (inactive)
MDA-MB-435
  GI50: 70 µM (inactive)
DU-145
  GI50: > 100 µM (inactive)
SN12C
  GI50: > 100 µM (inactive)
NCI-H522
  GI50: 50.5 µM (inactive)
U-251
  GI50: > 100 µM (inactive)
SW-620
  GI50: > 100 µM (inactive)
IGROV-1
  GI50: 73.5 µM (inactive)
Hs-578T
  GI50: > 100 µM (inactive)
SK-OV-3
  GI50: > 100 µM (inactive)
MDA-MB-231
  GI50: > 100 µM (inactive)
ACHN
  GI50: > 100 µM (inactive)
UACC-257
  GI50: > 100 µM (inactive)
UO-31
  GI50: > 100 µM (inactive)
NCI-H23
  GI50: > 100 µM (inactive)
OVCAR-5
  GI50: > 100 µM (inactive)
HCT-116
  GI50: 95.5 µM (inactive)
A549
  GI50: > 100 µM (inactive)
BT-549
  GI50: > 100 µM (inactive)
LOX IMVI
  GI50: > 100 µM (inactive)
HCT-15
  GI50: > 100 µM
RXF 393
  GI50: > 100 µM (inactive)
NCI-H226
  GI50: > 100 µM (inactive)
Malme-3M
  GI50: > 100 µM (inactive)
MDA-N
  GI50: 55.2 µM (inactive)
HT-29
  GI50: > 100 µM (inactive)
KM12
  GI50: > 100 µM (inactive)
MCF7
  GI50: > 100 µM (inactive)
UACC-62
  GI50: > 100 µM (inactive)
OVCAR-8
  GI50: > 100 µM (inactive)
SNB-75
  GI50: > 100 µM (inactive)
TK-10
  GI50: > 100 µM (inactive)
SNB-19
  GI50: > 100 µM (inactive)

## CCOC(=O)c1c(NCc2ccccc2)n(-c2ccccc2)c(=S)n(-c2ccccc2)c1=O
M14
  GI50: > 100 µM (inactive)
OVCAR-4
  GI50: 98.6 µM (inactive)
HL-60
  GI50: 35.6 µM (inactive)
SF-295
  GI50: 49.4 µM (inactive)
OVCAR-3
  GI50: > 100 µM (inactive)
T47D
  GI50: 66.4 µM (inactive)
SK-MEL-28
  GI50: > 100 µM (inactive)
NCI-H460
  GI50: > 100 µM (inactive)
RPMI-8226
  GI50: 35.6 µM (inactive)
SK-MEL-5
  GI50: 94.6 µM (inactive)
SK-MEL-2
  GI50: > 100 µM (inactive)
786-0
  GI50: > 100 µM (inactive)
HOP-92
  GI50: > 100 µM (inactive)
COLO 205
  GI50: 76.2 µM (inactive)
SF-268
  GI50: > 100 µM (inactive)
HCC 2998
  GI50: > 100 µM (inactive)
CCRF-CEM
  GI50: 29.4 µM (inactive)
MDA-MB-435
  GI50: > 100 µM (inactive)
DU-145
  GI50: > 100 µM (inactive)
SN12C
  GI50: > 100 µM (inactive)
NCI-H522
  GI50: 57.8 µM (inactive)
U-251
  GI50: > 100 µM (inactive)
SW-620
  GI50: > 100 µM (inactive)
IGROV-1
  GI50: > 100 µM (inactive)
Hs-578T
  GI50: 19.5 µM (inactive)
MDA-MB-231
  GI50: > 100 µM (inactive)
ACHN
  GI50: > 100 µM (inactive)
UACC-257
  GI50: > 100 µM (inactive)
UO-31
  GI50: 45.8 µM (inactive)
NCI-H23
  GI50: > 100 µM (inactive)
OVCAR-5
  GI50: > 100 µM (inactive)
A549
  GI50: 91.6 µM (inactive)
BT-549
  GI50: 36.9 µM (inactive)
LOX IMVI
  GI50: > 100 µM (inactive)
HCT-15
  GI50: 63.1 µM
RXF 393
  GI50: > 100 µM (inactive)
NCI-H226
  GI50: > 100 µM (inactive)
SR
  GI50: 33.7 µM (inactive)
Malme-3M
  GI50: > 100 µM (inactive)
MOLT-4
  GI50: 34.5 µM (inactive)
MDA-N
  GI50: > 100 µM (inactive)
HT-29
  GI50: 40.4 µM (inactive)
KM12
  GI50: > 100 µM (inactive)
MCF7
  GI50: 53.3 µM (inactive)
UACC-62
  GI50: 94.8 µM (inactive)
K562
  GI50: 41.1 µM (inactive)
OVCAR-8
  GI50: > 100 µM (inactive)
SNB-75
  GI50: 33.7 µM (inactive)
TK-10
  GI50: > 100 µM (inactive)
SNB-19
  GI50: > 100 µM (inactive)

## O=C(O)CN1CCNCCN(CP(=O)(O)O)CC1
M14
  GI50: 16.6 µM (inactive)
OVCAR-4
  GI50: 24.6 µM (inactive)
HL-60
  GI50: 3.22 µM (inactive)
SF-295
  GI50: 26.2 µM (inactive)
A498
  GI50: > 19.7 µM (inactive)
T47D
  GI50: > 100 µM (inactive)
EKVX
  GI50: 13.2 µM (inactive)
CAKI-1
  GI50: > 100 µM (inactive)
SK-MEL-28
  GI50: > 100 µM (inactive)
NCI-H460
  GI50: 3.44 µM (inactive)
PC-3
  GI50: 9.73 µM (inactive)
RPMI-8226
  GI50: 5.52 µM (inactive)
SK-MEL-5
  GI50: 4.28 µM (inactive)
SK-MEL-2
  GI50: 7.03 µM (inactive)
HOP-62
  GI50: > 100 µM (inactive)
786-0
  GI50: 4.83 µM (inactive)
HOP-92
  GI50: 22.3 µM (inactive)
COLO 205
  GI50: 2.84 µM (inactive)
SF-268
  GI50: 22.3 µM (inactive)
HCC 2998
  GI50: 3.28 µM (inactive)
CCRF-CEM
  GI50: 4.94 µM (inactive)
MDA-MB-435
  GI50: > 53 µM (inactive)
DU-145
  GI50: > 100 µM (inactive)
SN12C
  GI50: > 100 µM (inactive)
NCI-H522
  GI50: 2.58 µM (inactive)
U-251
  GI50: > 24.3 µM (inactive)
SW-620
  GI50: 4.49 µM (inactive)
IGROV-1
  GI50: 4.15 µM (inactive)
Hs-578T
  GI50: > 30.1 µM (inactive)
SK-OV-3
  GI50: 11.8 µM (inactive)
MDA-MB-231
  GI50: > 70.1 µM (inactive)
ACHN
  GI50: > 100 µM (inactive)
UACC-257
  GI50: > 33.8 µM (inactive)
UO-31
  GI50: 53.2 µM (inactive)
NCI-H23
  GI50: > 100 µM (inactive)
OVCAR-5
  GI50: 6.52 µM (inactive)
HCT-116
  GI50: 3.87 µM (inactive)
A549
  GI50: 4.89 µM (inactive)
BT-549
  GI50: > 100 µM (inactive)
HCT-15
  GI50: 4.25 µM
RXF 393
  GI50: 6.89 µM (inactive)
NCI-H226
  GI50: > 39.1 µM (inactive)
SR
  GI50: > 20.2 µM (inactive)
Malme-3M
  GI50: 1.75 µM (inactive)
MOLT-4
  GI50: 4.34 µM (inactive)
MDA-N
  GI50: 5.35 µM (inactive)
HT-29
  GI50: 2.02 µM (inactive)
KM12
  GI50: 5.47 µM (inactive)
MCF7
  GI50: 6.22 µM (inactive)
UACC-62
  GI50: 8.69 µM (inactive)
K562
  GI50: 3.92 µM (inactive)
SNB-75
  GI50: 14.2 µM (inactive)
TK-10
  GI50: > 37.2 µM (inactive)
SNB-19
  GI50: > 100 µM (inactive)
